The target in this assay is T1, Phosphodiesterase (Bos taurus, UniProt F1MPW5).
T1 sequence (F1MPW5 whole entry): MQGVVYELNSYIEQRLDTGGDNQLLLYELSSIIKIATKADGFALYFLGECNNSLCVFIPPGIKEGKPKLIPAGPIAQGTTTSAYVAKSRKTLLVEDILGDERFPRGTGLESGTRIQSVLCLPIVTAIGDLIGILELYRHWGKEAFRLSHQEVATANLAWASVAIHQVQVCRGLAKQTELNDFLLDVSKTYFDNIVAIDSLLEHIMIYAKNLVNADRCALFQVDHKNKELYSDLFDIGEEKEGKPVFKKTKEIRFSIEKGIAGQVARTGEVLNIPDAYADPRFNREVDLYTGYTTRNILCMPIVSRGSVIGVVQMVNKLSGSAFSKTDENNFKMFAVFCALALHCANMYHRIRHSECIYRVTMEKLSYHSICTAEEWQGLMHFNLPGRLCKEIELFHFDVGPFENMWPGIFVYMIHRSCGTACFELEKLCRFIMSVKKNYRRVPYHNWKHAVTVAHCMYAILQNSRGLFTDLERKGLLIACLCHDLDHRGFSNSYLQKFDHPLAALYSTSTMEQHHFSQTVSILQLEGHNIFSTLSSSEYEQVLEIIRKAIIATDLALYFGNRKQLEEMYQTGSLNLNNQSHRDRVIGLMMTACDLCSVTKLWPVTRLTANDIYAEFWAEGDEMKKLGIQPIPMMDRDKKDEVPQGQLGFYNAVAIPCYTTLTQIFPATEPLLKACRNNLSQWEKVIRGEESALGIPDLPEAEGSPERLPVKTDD
The experiment in a line: Inhibition Assay: The PDE assay was performed according to a modified method referred to a report of Kotera et al. (Kotera et al., Biochem. Pharmacol., vol. 60, pp. 1333-1341, 2000), by the radiolabeled nucleotide method.Specifically, the measurements of the inhibitory activities were carried out in the following method.(Method) The test compounds were dissolved in dimethyl sulfoxide (DMSO). 2 uL of the compound solution was added to 96 well plate, and the reaction mixture (20 uL of PDE enzyme solution in 50 mM Tris-HCl, pH 8.0, 40 uL of the assay buffer (50 mM Tris-HCl, pH 8.0, 2 mM MgCl2, 0.07% 2-mercaptoethanol, and 0.825 mg/mL bovine serum albumin), and 20 uL of 1 mg/mL snake venom in 50 mM Tris-HCl, pH8.0) was added to the 96 well plate. The enzyme reaction was started by adding and mixing with substrate solution of 20 L containing approximate 35 nM 3H-cAMP in 50 mM Tris-HCl, pH 8.0. The final concentration of cAMP in the reaction mixtures was 7 nM.
On to `Cc1nc2ccccc2nc1-c1cc2nc(N3CCCC3)cc(NC3CCOCC3)n2n1`, for which the IC50 was determined as 0.11 nM. Turning to `Cc1ccc2nc(C)c(-c3cc4nc(N5CCC[C@H]5CO)cc(N(C5CCOCC5)C5CC5)n4n3)nc2c1`, the IC50 was 0.0068 nM. For the compound `Cc1nc2ccccc2nc1-c1cc2nc(N3CCCC3)cc(N(C)C3CCOCC3)n2n1`, the IC50 was 0.0045 nM. Take `Cc1nc2ccccc2nc1-c1cc2nc(N3CC[C@@H](F)C3)cc(NC3CCOCC3)n2n1`: the IC50 came out at 0.83 nM. Consider `Cc1nc2ccc(F)cc2nc1-c1cc2nc(N3CC[C@@H](F)C3)cc(NCC(C)(C)O)n2n1`, for which the IC50 is 0.09 nM. As for `Cc1nc2ccccc2nc1-c1cc2nc(N3CC=CC3)cc(NC3CCOCC3)n2n1`, the IC50 came out at 0.2 nM. With `Cc1nc2ccccc2nc1-c1cc2nc(N3CCCC3)cc(OC3CCOCC3)n2n1`, the IC50 was determined as 0.38 nM. In the case of `Cc1nc2ccccc2nc1-c1cc2nc(C3=CCCC3)cc(NC3CCOCC3)n2n1`, the IC50 turned out to be 0.22 nM. As to `Cc1nc2ccc(F)cc2nc1-c1cc2nc(N3CC[C@@H](F)C3)cc(N[C@H]3CC[C@](C)(O)CC3)n2n1`, the IC50 was 0.09 nM. For `Cc1nc2ccccc2nc1-c1cc2nc(N3CCCC3)cc(N3CCCC3)n2n1`, the IC50 came to 0.57 nM. Consider `Cc1nc2ccccc2nc1-c1cc2nc(N3CCCC3)cc(NC[C@H](O)C(F)(F)F)n2n1`, for which the IC50 worked out at 0.13 nM. In the case of `Cc1nc2ccccc2nc1-c1cc2nc(N3CCCC3)cc(NCCC#N)n2n1`, the IC50 turned out to be 0.052 nM.

As for `CO[C@H]1CC[C@H](Nc2cc(N3CCCC3)nc3cc(-c4nc5cc(C(F)(F)F)ccc5nc4C)nn23)CC1`, the IC50 was 0.045 nM. On to `Cc1nc2ccccc2nc1-c1cc2nc(N3CC[C@@H](F)C3)cc(NC3COC3)n2n1`, for which the IC50 came to 0.65 nM. On to `Cc1nc2ccccc2nc1-c1cc2nc(N3CC[C@@H](F)C3)cc(NCC(C)(C)O)n2n1`, for which the IC50 turned out to be 0.32 nM.

Regarding `Cc1nc2ccccc2nc1-c1cc2nc(N3CC[C@@H](F)C3)cc(NC3CC3)n2n1`, the IC50 stood at 0.87 nM. Take `CCc1nc2ccccc2nc1-c1cc2nc(N3CC[C@@H](F)C3)cc(N[C@H]3CC[C@H](OC)CC3)n2n1`: the IC50 was found to be 0.39 nM. Regarding `C[C@]1(O)CC[C@H](Nc2cc(N3CC[C@@H](F)C3)nc3cc(-c4nc5ccccc5nc4C(F)(F)F)nn23)CC1`, the IC50 was 0.18 nM. Take `Cc1nc2ccc(F)cc2nc1-c1cc2nc(N3CCCC3)cc(N[C@H]3CCCC[C@@H]3O)n2n1`: the IC50 worked out at 0.035 nM. For `Cc1nc2c(C)cccc2nc1-c1cc2nc(N3CCCC3)cc(NC3CCOCC3)n2n1`, the IC50 stood at 0.78 nM.

On to `Cc1ccc2nc(-c3cc4nc(N5CCCC5)cc(NC5CCOCC5)n4n3)c(C)nc2c1`, for which the IC50 was 0.46 nM.

With `Cc1ccc2nc(C)c(-c3cc4nc(N5CCCC5)cc(N[C@@H]5CCS(=O)(=O)C5)n4n3)nc2c1`, the IC50 was determined as 0.0085 nM. Regarding `CC(=O)N1CCC(Nc2cc(N3CCCC3)nc3cc(-c4nc5cc(C)ccc5nc4C)nn23)CC1`, the IC50 turned out to be 0.044 nM. With `CCCN1CCC(Nc2cc(N3CCCC3)nc3cc(-c4nc5cc(C)ccc5nc4C)nn23)CC1`, the IC50 is 0.15 nM. `Cc1ccc2nc(C)c(-c3cc4nc(N5CCCC5)cc(NCCN(C)C)n4n3)nc2c1`: the IC50 is 0.17 nM. As for `Cc1nc2c(nc1-c1cc3nc(N4CCCC4)cc(NC4CCC(F)(F)CC4)n3n1)CCCC2`, the IC50 was 0.23 nM. Turning to `Cc1nc(C)c(-c2cc3nc(N4CCCC4)cc(N(C)C4CCOCC4)n3n2)nc1C`, the IC50 is 0.48 nM.

As for `Cc1nc2ccccc2nc1-c1cc2nc(N3CCC[C@H]3CO)cc(N[C@@H]3CCCOC3)n2n1`, the IC50 is 0.39 nM. As for `Cc1ccc2nc(C)c(-c3cc4nc(N5CC(O)C5)cc(NC5CCOCC5)n4n3)nc2c1`, the IC50 was determined as 1.08 nM. The result for `Cc1nc2ccccc2nc1-c1cc2nc(N3CCCC3)cc(CC3CCOCC3)n2n1` reads 0.36 nM.

As usually defined, the IC50 is the point on the concentration scale where inhibition reaches its midpoint.

Values taken from ChEMBL document CHEMBL3638822, “Pyrazolopyrimidine compounds and their use as PDE10 inhibitors” (2015).
